Earlier results on 1 compound are cited in patent US10780172B2, “Docetaxel and human serum albumin complexes” (Zhuhai Beihai Biotech Co., Ltd., priority 2015, dated 2020).

Entries after “also recorded” stand apart in the source; their conditions may differ.

Turning to `CC(=O)O[C@@]12CO[C@@H]1C[C@H](O)[C@@]1(C)C(=O)[C@H](O)C3=C(C)[C@@H](OC(=O)[C@H](O)[C@@H](NC(=O)OC(C)(C)C)c4ccccc4)C[C@@](O)([C@@H](OC(=O)c4ccccc4)[C@H]21)C3(C)C` [Docetaxel], the water solubility result is “practically insoluble in water; also recorded: very poor water solubility”. Moreover, the protein bound entry with plasma proteins (in vitro studies, mainly to al-acid glycoprotein, albumin, and lipoproteins) was “about 94%”. Further, the “in vitro binding to plasma proteins” value with plasma proteins (three cancer patients) was “approximately 97%”. Besides, the “potency relative to paclitaxel in inhibiting microtubule depolymerization” value in the data set with microtubule is listed as “about twice as potent as paclitaxel”.
